Data taken from patent publication US20240116921A1, “LACTAM (HETERO)[…] DERIVATIVES AS INHIBITORS OF ERBB2” (EnLiven Therapeutics, Inc., priority 2020, published 2024).
Where a name gives a salt, the structure may show the parent alone.

Tests used:
[1] = molecular target: T1, phosphorylated EGFR (pEGFR) (Homo sapiens, UniProt P00533); experiment: Detection of phosphorylated EGFR (pEGFR) in EGF-stimulated A431 cells; assay type: cell-based; settings: A431 cells (10% FBS), 4 hours incubation, EGF 30 ng/mL 10 minutes, AlphaLISA
T1 construct: performed to measure phosphorylated EGFR levels using A431 cells (10% FBS); endogenous in cells; host or cells: A431
Method: Enzyme-linked immunosorbent assays (ELISA) were performed to measure phosphorylated EGFR levels using A431 cells (10% FBS). A431 (1.0*10^4 cells/40 μl/well) cells were seeded in 384 well. Compounds were dissolved in DMSO, serially diluted in DMSO and then were added, mixed, and incubated for 4 hours at 37° C., 5% CO2. Following the 4-hours incubation, cells were stimulated for 10 minutes with EGF (Invitrogen, cat #PHG0311) at a final concentration of 30 ng/mL in the incubator. The media was aspirated and cells were lysed in 10 μL lysis buffer with protease and phosphatase inhibitors (PerkinElmer, cat #ALSU-PEGFR-A50K). The plates were placed on a shaker for 5 minutes and then incubated for 30 min at 4° C. for complete lysis. The lysate was transferred to an Optiplate (Perkin Elmer, cat #6007290).
Acceptor mix (PerkinElmer, cat #ALSU-PEGFR-A50K) was prepared just before use and 5 μL was dispensed to all the wells, followed by a 1.5-2 h incubation at room temperature in dark. The donor mix (PerkinElmer, cat #ALSU-PEGFR-A50K) was prepared under low light conditions prior to use and […] of donor mix was added to all the wells under subdued lighting or green filters. The plates were placed on a shaker for 5 min, sealed, and incubated overnight at room temperature in dark. Plates were read on the Envision (PerkinElmer) using standard AlphaLISA settings.
The percentage of inhibition on EGFR phosphorylation was calculated following equation: % Inhibition=100×(LumHC−LumSample)/(LumHC−LumLC). The low and high controls (LC/HC) are generated from lysate from wells with cells treated with DMSO or […] Staurosporine (BioAustralis, cat #BIA-S1086), […]. IC50 values were calculated by fitting the Curve using XLfit (v5.3.1.3), equation 201: Y=Bottom+(Top−Bottom)/(1+10^((Log IC50−X)*HillSlope)).

[2] = molecular target: T2, phosphorylated ERBB2 (pERBB2) (Homo sapiens, UniProt P04626); experiment: Detection of phosphorylated ERBB2 (pERBB2) by ELISA in BT-474 cells; assay type: cell-based; settings: four hours incubation
T2 construct: endogenous in cells; host or cells: BT-474
Method: BT-474 cells were seeded into a 96-well at 2.0*10^4 cells/100 μl/well.
Compounds were dissolved and serially diluted in DMSO. The compounds were then were added, mixed, and incubated for four hours at 37° C., 5% CO2. Compounds were added using four-fold dilutions at final concentrations ranging from 10 μM to 0.01 nM.
Following the four hour incubation with compounds, cell lysates were prepared.
Plates were centrifuged for 5 min at 3000 RPM, and supernatant was removed from each well. Cells were washed 3 times by resuspension in 150 μl PBS, followed by centrifugation and removal of the supernatant, as above. […] Cells were incubated with lysis buffer for 1 hour at 4° C., and then stored at −80° C.
Enzyme-linked immunosorbent assays (ELISA) were performed to measure phosphorylated ERBB2 levels. […] The next day, plates were washed with PBS+0.05% Tween20 (PBST). 150 μl of 5% BSA blocking solution was added for 1 hour at room temperature, with shaking. Plates were washed with PBST. Cell lysates were thawed and 100 μl of lysate was added to the ELISA plate. The plates were incubated for 2 hours at room temperature, with shaking. […] Plates were incubated for 1 hour at room temperature, with shaking. Plates were then washed with PBST, and 100 μl TMB substrate solution (R&D Systems, cat #DY999) was added. Plate were incubated in the dark for 20 minutes at room temperature. 50 μl of Stop solution (R&D Systems, cat #DY994) (50 μl) was added to each well and mixed.
Optical density at 450 nm was read on an EnSpire plate reader (Perkin Elmer). The remaining kinase activity by calculated using the following formula: % Relative activity=100×(A450sample−A450LC)/(A450HC−A450LC). The low and high control values (“LC” and “HC”) were generated from lysate from wells without cells or with cells treated with 0.1% DMSO, respectively.

[3] = molecular target: Ba/F3 ERBB2 A775_G776insYVMA (Homo sapiens, UniProt P04626, DUP772-775, cells depend on it); experiment: Cell viability assay, Ba/F3 ERBB2 A775_G776insYVMA; assay type: cell-based, mouse; settings: Ba/F3 ERBB2 YVMA cells, cell viability, 72 hours, CellTiter Glo; Table B5; read-out: Ba/F3 ERBB2 YVMA, IC50
Method: Cells were treated with compounds, and cell viability was measured as a metric of kinase inhibition.
The Ba/F3 cell line is IL-3-dependent mouse cell line derived from the C3H mouse strain. Ba/F3 cell lines were engineered to express human ERBB2 or EGFR kinases, rendering the cells IL-3 independent. The lines were generated via retroviral transduction utilizing a Moloney murine leukemia virus (MMLV) promoter, and constructs are stably integrated into the cell genome. The sequences of the ERBB2 and EGFR genes used were NCBI Reference Sequences NM_004448.3 and NM_005228.3, respectively.
Similarly, Ba/F3 cell lines engineered to express EGFR, ERBB2, or ERBB2 mutants were grown, harvested, counted and seeded at 3000 cells per well in 96-well plates. A subset of wells contained media only (low control, “LC”).
Table B1 provides the growth media and number of cells seeded per well for the each cell line.
Plates were placed in a 37° C., 5% CO2 incubator for 72 hours. Plates were then removed from the incubator and equilibrated for 15 minutes at room temperature. 40 μl of CellTiter Glo reagent (Promega) was added to measure the relative level of metabolically active cells by quantifying intracellular ATP concentrations. Plates were incubated for 30 minutes at room temperature, and luminescence was measured. […] Graphical curves were fitted using a nonlinear regression model with a sigmoidal dose response.

T2 sequence (P04626 23-1255): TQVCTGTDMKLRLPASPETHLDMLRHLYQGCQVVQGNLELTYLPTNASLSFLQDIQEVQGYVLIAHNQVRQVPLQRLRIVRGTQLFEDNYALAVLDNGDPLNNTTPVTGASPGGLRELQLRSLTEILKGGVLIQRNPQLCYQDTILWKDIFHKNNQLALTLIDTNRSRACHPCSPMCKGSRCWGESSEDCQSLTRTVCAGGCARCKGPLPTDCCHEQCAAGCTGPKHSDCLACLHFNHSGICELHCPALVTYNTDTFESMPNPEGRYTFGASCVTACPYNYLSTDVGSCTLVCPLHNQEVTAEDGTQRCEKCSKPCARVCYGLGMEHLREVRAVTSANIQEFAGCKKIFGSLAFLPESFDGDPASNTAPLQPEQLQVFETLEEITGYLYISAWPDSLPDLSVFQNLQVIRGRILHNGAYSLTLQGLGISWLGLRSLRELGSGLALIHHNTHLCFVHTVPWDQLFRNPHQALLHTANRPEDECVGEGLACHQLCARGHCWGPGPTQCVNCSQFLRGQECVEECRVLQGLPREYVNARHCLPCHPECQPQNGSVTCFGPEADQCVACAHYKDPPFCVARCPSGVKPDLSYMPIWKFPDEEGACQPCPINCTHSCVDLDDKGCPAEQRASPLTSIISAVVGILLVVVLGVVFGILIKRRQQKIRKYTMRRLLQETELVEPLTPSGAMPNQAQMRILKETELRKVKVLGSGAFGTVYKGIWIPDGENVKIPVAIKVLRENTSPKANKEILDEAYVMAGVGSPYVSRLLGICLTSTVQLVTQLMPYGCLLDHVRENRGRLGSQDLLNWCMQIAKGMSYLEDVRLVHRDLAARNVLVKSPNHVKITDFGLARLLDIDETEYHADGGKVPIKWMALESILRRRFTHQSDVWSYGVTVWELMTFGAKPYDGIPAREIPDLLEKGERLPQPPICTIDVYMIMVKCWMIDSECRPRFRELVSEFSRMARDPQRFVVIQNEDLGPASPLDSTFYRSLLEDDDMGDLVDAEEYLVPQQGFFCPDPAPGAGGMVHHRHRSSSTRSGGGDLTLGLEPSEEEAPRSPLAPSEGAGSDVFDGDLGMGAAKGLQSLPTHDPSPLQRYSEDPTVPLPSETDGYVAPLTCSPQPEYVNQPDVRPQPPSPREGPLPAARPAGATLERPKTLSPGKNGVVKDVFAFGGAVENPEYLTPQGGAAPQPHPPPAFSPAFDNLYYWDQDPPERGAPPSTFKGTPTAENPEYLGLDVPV
Sequence of Ba/F3 ERBB2 A775_G776insYVMA (P04626 with tags, fused parts or gaps DUP772-775): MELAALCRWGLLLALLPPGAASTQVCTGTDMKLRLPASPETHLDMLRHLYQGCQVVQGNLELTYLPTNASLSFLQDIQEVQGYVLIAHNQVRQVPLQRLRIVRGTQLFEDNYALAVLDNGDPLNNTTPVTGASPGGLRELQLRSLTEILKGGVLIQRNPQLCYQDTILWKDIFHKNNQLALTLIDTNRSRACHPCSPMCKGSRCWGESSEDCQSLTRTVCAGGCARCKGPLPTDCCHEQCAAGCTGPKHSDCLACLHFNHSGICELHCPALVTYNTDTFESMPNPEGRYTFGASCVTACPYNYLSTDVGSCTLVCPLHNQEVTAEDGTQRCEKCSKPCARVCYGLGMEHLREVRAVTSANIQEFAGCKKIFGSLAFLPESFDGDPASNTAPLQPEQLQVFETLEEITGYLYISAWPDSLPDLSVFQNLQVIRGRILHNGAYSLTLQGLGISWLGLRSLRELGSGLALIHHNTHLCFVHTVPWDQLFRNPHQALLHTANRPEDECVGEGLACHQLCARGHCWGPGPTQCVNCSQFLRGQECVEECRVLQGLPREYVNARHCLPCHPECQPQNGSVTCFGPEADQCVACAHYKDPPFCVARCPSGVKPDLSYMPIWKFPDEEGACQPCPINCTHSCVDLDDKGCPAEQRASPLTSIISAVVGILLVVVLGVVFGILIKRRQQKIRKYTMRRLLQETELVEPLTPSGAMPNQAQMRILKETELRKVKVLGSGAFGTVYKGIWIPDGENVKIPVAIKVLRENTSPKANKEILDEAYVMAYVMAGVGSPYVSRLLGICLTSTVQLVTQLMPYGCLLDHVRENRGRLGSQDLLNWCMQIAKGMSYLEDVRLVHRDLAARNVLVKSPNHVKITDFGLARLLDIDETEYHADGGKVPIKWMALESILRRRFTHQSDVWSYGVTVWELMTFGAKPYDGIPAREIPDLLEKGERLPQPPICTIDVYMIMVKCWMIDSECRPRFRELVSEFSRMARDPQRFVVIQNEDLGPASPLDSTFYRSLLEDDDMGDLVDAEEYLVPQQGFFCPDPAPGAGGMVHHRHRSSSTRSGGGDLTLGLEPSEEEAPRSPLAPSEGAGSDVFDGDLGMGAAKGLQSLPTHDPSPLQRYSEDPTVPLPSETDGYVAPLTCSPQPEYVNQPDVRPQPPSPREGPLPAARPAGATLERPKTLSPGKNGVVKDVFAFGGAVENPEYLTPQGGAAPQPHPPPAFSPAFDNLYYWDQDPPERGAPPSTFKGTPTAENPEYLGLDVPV
T1 sequence (P00533 25-1210): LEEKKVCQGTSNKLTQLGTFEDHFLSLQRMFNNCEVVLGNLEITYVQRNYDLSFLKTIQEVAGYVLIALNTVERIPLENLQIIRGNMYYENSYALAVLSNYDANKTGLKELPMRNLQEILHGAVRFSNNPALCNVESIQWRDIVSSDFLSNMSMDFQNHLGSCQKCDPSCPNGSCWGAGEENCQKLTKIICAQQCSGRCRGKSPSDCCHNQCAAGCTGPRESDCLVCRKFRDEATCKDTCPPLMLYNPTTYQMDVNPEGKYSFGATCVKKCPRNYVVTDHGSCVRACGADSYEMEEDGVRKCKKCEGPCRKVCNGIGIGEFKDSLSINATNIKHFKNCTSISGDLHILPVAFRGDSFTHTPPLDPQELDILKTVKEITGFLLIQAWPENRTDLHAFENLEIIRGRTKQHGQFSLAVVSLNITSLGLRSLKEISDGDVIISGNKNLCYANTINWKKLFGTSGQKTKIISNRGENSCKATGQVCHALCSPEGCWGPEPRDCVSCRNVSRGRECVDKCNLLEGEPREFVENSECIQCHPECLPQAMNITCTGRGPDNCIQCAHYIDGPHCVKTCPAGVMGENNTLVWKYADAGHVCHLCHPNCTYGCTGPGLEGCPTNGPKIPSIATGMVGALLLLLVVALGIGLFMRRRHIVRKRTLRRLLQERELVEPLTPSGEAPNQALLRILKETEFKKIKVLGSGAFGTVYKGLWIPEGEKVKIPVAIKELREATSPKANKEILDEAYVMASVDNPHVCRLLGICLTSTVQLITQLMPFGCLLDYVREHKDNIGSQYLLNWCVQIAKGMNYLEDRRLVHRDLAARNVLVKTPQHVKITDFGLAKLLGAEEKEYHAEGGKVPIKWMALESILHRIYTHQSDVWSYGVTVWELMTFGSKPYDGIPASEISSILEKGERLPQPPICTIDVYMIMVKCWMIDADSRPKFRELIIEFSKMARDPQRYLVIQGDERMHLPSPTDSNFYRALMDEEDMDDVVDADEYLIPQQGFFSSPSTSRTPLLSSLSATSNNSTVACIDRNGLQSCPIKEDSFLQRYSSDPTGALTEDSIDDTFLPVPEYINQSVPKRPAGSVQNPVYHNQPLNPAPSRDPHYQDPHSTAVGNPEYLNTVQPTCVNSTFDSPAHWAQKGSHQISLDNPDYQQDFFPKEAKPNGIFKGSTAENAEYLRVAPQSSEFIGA

Row | SMILES | IC50 [1] | IC50 [2] | GI50 [3]
1 | CC1CN(c2cc3c(Nc4cc(F)c(Oc5ccc6c(c5)nnn6C)cc4F)ncnc3cn2)C(=O)/C1=C/CN(C)C (single isomer, unassigned) [Example S125, Enantiomer #1, (3E)-1-[4-({2,5-difluoro-4-[(1-methyl-1,2,3-benzotriazol-5-yl)oxy]phenyl}amino)pyrido[3,4-d]pyrimidin-6-yl]-3-[2-(dimethylamino)ethylidene]-4-methylpyrrolidin-2-one] | > 10000 nM | 710 nM | > 500 nM
2 | CC1CN(c2cc3c(Nc4cc(F)c(Oc5ccc6c(c5)nnn6C)cc4F)ncnc3cn2)C(=O)/C1=C/CN(C)C (single isomer, unassigned) [Example S125, Enantiomer #2, (3E)-1-[4-({2,5-difluoro-4-[(1-methyl-1,2,3-benzotriazol-5-yl)oxy]phenyl}amino)pyrido[3,4-d]pyrimidin-6-yl]-3-[2-(dimethylamino)ethylidene]-4-methylpyrrolidin-2-one] | 2300 nM | 76 nM | 27 nM
3 | Cc1cc(Nc2ncnc3ccc(N4CC(C)C(=CCN(C)C)C4=O)nc23)ccc1Oc1ccc2c(c1)nnn2C (single isomer, unassigned) [Example S126, Enantiomer #1, 3-[2-(dimethylamino)ethylidene]-4-methyl-1-[4-({3-methyl-4-[(1-methyl-1,2,3-benzotriazol-5-yl)oxy]phenyl}amino)pyrido[3,2-d]pyrimidin-6-yl]pyrrolidin-2-one] | 299 nM | 40.9 nM | 2.04 nM
4 | Cc1cc(Nc2ncnc3ccc(N4CC(C)C(=CCN(C)C)C4=O)nc23)ccc1Oc1ccc2c(c1)nnn2C (single isomer, unassigned) [Example S126, Enantiomer #2, 3-[2-(dimethylamino)ethylidene]-4-methyl-1-[4-({3-methyl-4-[(1-methyl-1,2,3-benzotriazol-5-yl)oxy]phenyl}amino)pyrido[3,2-d]pyrimidin-6-yl]pyrrolidin-2-one] | > 10000 nM | 401 nM | 205 nM
5 | CC1CN(c2ccc3ncnc(Nc4ccc(Oc5ccn6ncnc6c5)c(F)c4)c3n2)C(=O)/C1=C/CN(C)C (single isomer, unassigned) [Example S127, Enantiomer #1, (E)-1-(4-((4-([1,2,4]triazolo[1,5-a]pyridin-7-yloxy)-3-fluorophenyl)amino)pyrido[3,2-d]pyrimidin-6-yl)-3-(2-(dimethylamino)ethylidene)-4-methylpyrrolidin-2-one] | 575 nM | 14 nM | 2.88 nM
6 | CC1CN(c2ccc3ncnc(Nc4ccc(Oc5ccn6ncnc6c5)c(F)c4)c3n2)C(=O)/C1=C/CN(C)C (single isomer, unassigned) [Example S127, Enantiomer #2, (E)-1-(4-((4-([1,2,4]triazolo[1,5-a]pyridin-7-yloxy)-3-fluorophenyl)amino)pyrido[3,2-d]pyrimidin-6-yl)-3-(2-(dimethylamino)ethylidene)-4-methylpyrrolidin-2-one] | > 10000 nM | 146 nM | 418 nM
7 | C=C1C(=O)N(c2cc3c(Nc4ccc(Oc5ccn6ncnc6c5)c(C)c4)ncnc3cn2)C2CC12 (single isomer, unassigned; enantiomer 1) [Example S40, Enantiomer # 1, 2-{4-[(3-methyl-4-{[1,2,4]triazolo[1,5-a]pyridin-7-yloxy}phenyl)amino]pyrido[3,4-d]pyrimidin-6-yl}-4-methylidene-2-azabicyclo[3.1.0]hexan-3-one Enantiomer 1] | 103 nM | 9.9 nM | 3.47 nM
8 | Cc1cc(Nc2ncnc3ccc(N4CC(C)/C(=C\CN(C)C)C4=O)nc23)ccc1Oc1ccc2c(c1)ncn2C (single isomer, unassigned; enantiomer 1) [Example S58, Enantiomer # 1, (3E)-3-[2-(dimethylamino)ethylidene]-4-methyl-1-[4-({3-methyl-4-[(1-methyl-1,3-benzodiazol-5-yl)oxy]phenyl}amino)pyrido[3,2-d]pyrimidin-6-yl]pyrrolidin-2-one hydrochloride Enantiomer 1] | 264 nM | 29.7 nM | 1.46 nM
9 | C=C1C(=O)N(c2cc3c(Nc4ccc(Oc5ccn6ncnc6c5)c(C)c4)ncnc3cn2)C2CC12 (single isomer, unassigned; enantiomer 2) [Example S40, Enantiomer # 2, 2-{4-[(3-methyl-4-{[1,2,4]triazolo[1,5-a]pyridin-7-yloxy}phenyl)amino]pyrido[3,4-d]pyrimidin-6-yl}-4-methylidene-2-azabicyclo[3.1.0]hexan-3-one Enantiomer 2] | 6450 nM | 35.5 nM | 68.1 nM
10 | Cc1cc(Nc2ncnc3ccc(N4CC(C)/C(=C\CN(C)C)C4=O)nc23)ccc1Oc1ccc2c(c1)ncn2C (single isomer, unassigned; enantiomer 2) [Example S58, Enantiomer # 2, (3E)-3-[2-(dimethylamino)ethylidene]-4-methyl-1-[4-({3-methyl-4-[(1-methyl-1,3-benzodiazol-5-yl)oxy]phenyl}amino)pyrido[3,2-d]pyrimidin-6-yl]pyrrolidin-2-one hydrochloride Enantiomer 2] | > 10000 nM | 44.2 nM | 13.3 nM
11 | C=C1CCN(c2cc3c(Nc4ccc(Oc5ccn6ncnc6c5)c(Cl)c4)ncnc3cc2OCCN(C)C)C1=O [Compound 25, 1-{4-[(3-chloro-4-{[1,2,4]triazolo[1,5-a]pyridin-7-yloxy}phenyl)amino]-7-[2-(dimethylamino)ethoxy]quinazolin-6-yl}-3-methylidenepyrrolidin-2-one] | > 10000 nM | 1190 nM | > 500 nM
12 | Cc1cc(Nc2ncnc3ccc(N4CC/C(=C\CCN(C)C)C4=O)cc23)ccc1Oc1ccn2ncnc2c1 [Compound 26, (3E)-3-[3-(dimethylamino)propylidene]-1-{4-[(3-methyl-4-{[1,2,4]triazolo[1,5-a]pyridin-7-yloxy}phenyl)amino]quinazolin-6-yl}pyrrolidin-2-one] | 1460 nM | 11.7 nM | 8.61 nM
